Test results: patent EP1978972B1, “USE OF ALKYLGLUCOSIDE ESTERS AS BETA-DEFENSIN INDUCERS” (Pierre Fabre Dermo-Cosmétique, priority 2006, dated 2007)

What was measured:
S. aureus [1] = experiment: Adhesion of S. aureus on skin explant (modified Franz cell), count of adherent bacteria; assay type: cell-based, Staphylococcus aureus
Description: Pour révéler le complexe Antigène-Anticorps, le kit DAKO LSAB® (DAKO Corporation) est utilisé selon les recommandations du fournisseur. La révélation est réalisée à l'aide d'un substrat de la péroxydase : la 3,3'diaminobenzidine (DAB) (DAKO Corporation). La réaction enzymatique est révélée par une coloration brune. • ➢L'adhésion des micro-organismes est réalisée dans une cellule à double compartimentation, de type cellule de Franz modifiée. • ➢Une suspension de S.aureus (CIP 53.154) équivalente à 0,5.10^7 micro-organismes est introduite au sein du compartiment supérieur de la cellule. Le dispositif est incubé de 2 h à 37°C sous une atmosphère à 5 % de CO2. A la fin de cette période d'incubation, le surnageant est retiré afin d'éliminer les bactéries non adhérentes. Les échantillons de peau sont ensuite rincés deux fois avec 1 ml de mélange DMEM/HAMF12. Un dénombrement bactérien à l'issue de cette étape donne la proportion de bactéries ayant adhéré à l'explant (T+2 h). Un témoin est réalisé dans le but de déterminer l'adhésion non spécifique des bactéries. • ➢La stimulation de l'expression des β-défensines cutanées précède l'étape d'adhésion. Son objectif est d'étudier l'impact de l'induction des peptides antimicrobiens par des actifs potentiels de type « alkyle mono- ou di-ester d'α,β-butylglucoside » sur l'adhésion de souches bactériennes. Le traitement est effectué en topique ou en systémique. Le temps de stimulation des explants cutanés est de 24 h à 37°C en présence de 5 % de CO2.
Pour analyse, les explants sont retirés de leur cellule, des punchs de diamètres différents (3 mm, 4 mm et 6 mm) sont effectués pour un test MTT de survie, les marquages immuno-histologiques et les analyses des transcrits par RT-PCR. Le reste de peau est utilisé pour une estimation de la flore bactérienne adhérente.
Le dénombrement de la flore bactérienne adhérente exogène par unité de surface de peau a été effectué selon deux méthodes : • par dénombrement bactérien sur milieu solide • par comptage de la radioactivité émise (la souche contaminante étant marquée au H^3) est effectuée. […]
Après une application topique de 5 h et plusieurs rinçages de la surface épidermique d'un explant cutané, l'effet du traitement par l'α,β-LBG brut sur l'adhésion de S.aureus sur ce même explant a été quantifié par le dénombrement des germes adhérents à l'issue d'une mise en contact de 2 h. […]
Après application topique et plusieurs rinçages de la surface épidermique des explants cutanés, l'effet du traitement par les isoformes de l'ester de laurate de butylglucoside pur à 90 %, séparées, α seul, β seul, ou en mélange α,β-LBG (56 % α/44 % β) sur l'adhésion de S. aureus sur l'épiderme a été comparé après quantification des germes adhérents par dénombrement.

hBD-3 = experiment: Immunohistochemistry of hBD-3 peptide in skin explants; assay type: cell-based, human; settings: skin explant, qualitative
Method: Les échantillons inclus dans la résine Tissue Tek® sont coupés à froid (température de la chambre à -25°C et la température du porte-objet à - 28°C) à l'aide d'un cryostat (Leica CM 3050s, Nussloch). Les cryocoupes d'une épaisseur de 5 µm sont récupérées sur des lames porte-objet prétraitées, puis mises à sécher environ 2 h à température ambiante et stockées à -20°C pour une utilisation ultérieure. Avant de réaliser l'immuno-marquage, les coupes sont fixées à l'acétone à -20°C pendant 10 min, séchées et conservées à -20°C. Lors d'une première étape, les coupes sont hydratées puis incubées avec les anticorps primaires dirigés contre les peptides d'intérêt dilués dans du PBS. Les anticorps primaires utilisés sont les suivants : • Goat Anti-human BD-2 (500-P161G, Peprotech Inc) dilué au 1/50^e • Rabbit Anti-human defensin-3 (AB3478, Chemicon international) dilué au 1/1000^e • Rabbit Anti-human LL37 (G-075-06, Phoenix Pharmaceuticals Inc) dilué au 1/50^e
Pour révéler le complexe Antigène-Anticorps, le kit DAKO LSAB® (DAKO Corporation) est utilisé selon les recommandations du fournisseur. La révélation est réalisée à l'aide d'un substrat de la péroxydase : la 3,3'diaminobenzidine (DAB) (DAKO Corporation). […]

[2] = system: Staphylococcus epidermidis; experiment: Development of endogenous commensal S. epidermidis on skin explant during 24 h after adhesion step; assay type: cell-based; settings: systemic treatment, in words
Method: (§1) Il est par ailleurs possible d'observer la colonisation de l'explant par le germe exogène (S. aureus) après l'étape d'adhésion pendant 24 h. […] L'effet inverse est observé avec le traitement par le TNF-α, cytokine pro-inflammatoire, qui après avoir entraîné une forte chute de l'adhésion de S. aureus (Cf.III.4.2) ne permet pas une limitation de la croissance du germe pathogène sur l'explant et ceci au dépend du germe commensal S. epidermidis.
(§2) La figure 12 annexée illustre la comparaison de la colonisation d'une souche contaminante, S. aureus, avec celle d'une souche commensale, S. epidermis.

S. aureus [3] = experiment: Colonisation of skin explant by exogenous S. aureus during 24 h after adhesion step; assay type: cell-based, Staphylococcus aureus; settings: systemic treatment, in words
Method: as §1, §2

laurate de butylglucoside [αβ-LBG brut] was tested, and the “diminution de l'adhésion des germes sur l'explant” value (S. aureus [1]; systemic 30 µg/ml, separate compartments, vs unstimulated control) was 11%, the “baisse de l'adhésion de S. aureus” value (S. aureus [1]; topical 30 µg/ml for 5 h, then 2 h contact, vs untreated control) was 20% and the “production du peptide hBD-3 dans les couches supérieures de l'épiderme” value (hBD-3; systemic, 24 h) was “stimulation de la production”. The “production du peptide hBD-3 dans les couches supérieures de l'épiderme” value (hBD-3; topical) was “stimulation de la production”, the “développement du germe commensal S. epidermidis” value [2] was “favorise à l'inverse le développement d'un germe commensal endogène” and the “multiplication / croissance du germe pathogène (S. aureus) sur l'explant” value (S. aureus [3]) was “ralentit la multiplication du germe pathogène”.
